Reference: PubChem BioAssay (NCI)
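Grown in 96-well plates, cells were treated for 48 hours with each compound at five concentrations. Insufficient inhibition: endpoint recorded as highest concentration tested. Abbreviation: GI50, concentration required for 50% inhibition of growth. TGI marks complete inhibition of growth.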

Columns and labels:
Experiment in all cases: NCI anticancer screen, dose series, 48 h
786-0 renal = tested on: 786-0 renal
A498 renal = tested on: A498 renal
A549 NSCLC = tested on: A549 NSCLC
ACHN renal = tested on: ACHN renal
BT-549 breast = tested on: BT-549 breast
CAKI-1 renal = tested on: CAKI-1 renal
CCRF-CEM leukemia = tested on: CCRF-CEM leukemia
COLO 205 colon = tested on: COLO 205 colon
DU-145 prostate = tested on: DU-145 prostate
EKVX NSCLC = tested on: EKVX NSCLC
HCT-116 colon = tested on: HCT-116 colon
HCT-15 colon = tested on: HCT-15 colon
HL-60(TB) leukemia = tested on: HL-60(TB) leukemia
HOP-62 NSCLC = tested on: HOP-62 NSCLC
HOP-92 NSCLC = tested on: HOP-92 NSCLC
HS 578T breast = tested on: HS 578T breast
HT29 colon = tested on: HT29 colon
IGROV1 ovarian = tested on: IGROV1 ovarian
K-562 leukemia = tested on: K-562 leukemia
KM12 colon = tested on: KM12 colon
LOX IMVI melanoma = tested on: LOX IMVI melanoma
M14 melanoma = tested on: M14 melanoma
MALME-3M melanoma = tested on: MALME-3M melanoma
MCF7 breast = tested on: MCF7 breast
MDA-MB-231 breast = tested on: MDA-MB-231 breast
MDA-MB-435 = tested on: MDA-MB-435
MDA-N = tested on: MDA-N
MOLT-4 leukemia = tested on: MOLT-4 leukemia
NCI-H23 lung = tested on: NCI-H23 lung
NCI-H460 lung = tested on: NCI-H460 lung
NCI-H522 lung = tested on: NCI-H522 lung
NCI/ADR-RES ovarian = tested on: NCI/ADR-RES ovarian
OVCAR-3 ovarian = tested on: OVCAR-3 ovarian
OVCAR-4 ovarian = tested on: OVCAR-4 ovarian
OVCAR-5 ovarian = tested on: OVCAR-5 ovarian
OVCAR-8 ovarian = tested on: OVCAR-8 ovarian
PC-3 prostate = tested on: PC-3 prostate
RPMI-8226 leukemia = tested on: RPMI-8226 leukemia
RXF 393 renal = tested on: RXF 393 renal
SF-268 CNS = tested on: SF-268 CNS
SF-295 CNS = tested on: SF-295 CNS
SF-539 CNS = tested on: SF-539 CNS
SK-MEL-2 melanoma = tested on: SK-MEL-2 melanoma
SK-MEL-28 melanoma = tested on: SK-MEL-28 melanoma
SK-MEL-5 melanoma = tested on: SK-MEL-5 melanoma
SK-OV-3 ovarian = tested on: SK-OV-3 ovarian
SN12C renal = tested on: SN12C renal
SNB-19 CNS = tested on: SNB-19 CNS
SR leukemia = tested on: SR leukemia
SW-620 colon = tested on: SW-620 colon
T-47D breast = tested on: T-47D breast
TK-10 renal = tested on: TK-10 renal
U251 CNS = tested on: U251 CNS
UACC-257 melanoma = tested on: UACC-257 melanoma
UACC-62 melanoma = tested on: UACC-62 melanoma
UO-31 renal = tested on: UO-31 renal

Compound: Cc1ccc([C@]2(C)CC[C@H](C)/C2=C\Br)c(O)c1
- GI50 (786-0 renal): 3.59 µM
- TGI (786-0 renal): 13.4 µM
- GI50 (A498 renal): 5.31 µM
- TGI (A498 renal): 20.3 µM
- GI50 (A549 NSCLC): 5.85 µM
- TGI (A549 NSCLC): 19 µM
- GI50 (ACHN renal): 7.5 µM
- TGI (ACHN renal): 26.1 µM
- GI50 (BT-549 breast): 5.4 µM
- TGI (BT-549 breast): 19.3 µM
- GI50 (CAKI-1 renal): 4.32 µM
- TGI (CAKI-1 renal): 16.6 µM
- GI50 (CCRF-CEM leukemia): 6.77 µM
- TGI (CCRF-CEM leukemia): 35.6 µM
- GI50 (COLO 205 colon): 2.49 µM
- TGI (COLO 205 colon): 6.14 µM
- GI50 (DU-145 prostate): 4.1 µM
- TGI (DU-145 prostate): 17.2 µM
- GI50 (EKVX NSCLC): 5.74 µM
- TGI (EKVX NSCLC): 17.7 µM
- GI50 (HCT-116 colon): 2.88 µM
- TGI (HCT-116 colon): 9.33 µM
- GI50 (HCT-15 colon): 4.99 µM
- TGI (HCT-15 colon): 33.7 µM
- GI50 (HL-60(TB) leukemia): 3.47 µM
- TGI (HL-60(TB) leukemia): 12.6 µM
- GI50 (HOP-62 NSCLC): 4.22 µM
- TGI (HOP-62 NSCLC): 15.7 µM
- GI50 (HOP-92 NSCLC): 10.4 µM
- TGI (HOP-92 NSCLC): 25.2 µM
- GI50 (HS 578T breast): 2.95 µM
- TGI (HS 578T breast): 15.7 µM
- GI50 (HT29 colon): 2.52 µM
- TGI (HT29 colon): 6.65 µM
- GI50 (IGROV1 ovarian): 3.07 µM
- TGI (IGROV1 ovarian): 12.4 µM
- GI50 (K-562 leukemia): 3.3 µM
- TGI (K-562 leukemia): 11.1 µM
- GI50 (KM12 colon): 3.55 µM
- TGI (KM12 colon): 13.7 µM
- GI50 (LOX IMVI melanoma): 8.21 µM
- TGI (LOX IMVI melanoma): 22.3 µM
- GI50 (M14 melanoma): 3.51 µM
- TGI (M14 melanoma): 13.3 µM
- GI50 (MALME-3M melanoma): 3.88 µM
- TGI (MALME-3M melanoma): 14.1 µM
- GI50 (MCF7 breast): 4.52 µM
- TGI (MCF7 breast): 17.9 µM
- GI50 (MDA-MB-231 breast): 3.5 µM
- TGI (MDA-MB-231 breast): 14.4 µM
- GI50 (MDA-MB-435): 1.86 µM
- TGI (MDA-MB-435): 4.82 µM
- GI50 (MDA-N): 2.74 µM
- TGI (MDA-N): 10.3 µM
- GI50 (MOLT-4 leukemia): 4.17 µM
- TGI (MOLT-4 leukemia): 16.8 µM
- GI50 (NCI-H23 lung): 11.4 µM
- TGI (NCI-H23 lung): 24.9 µM
- GI50 (NCI-H460 lung): 4.23 µM
- TGI (NCI-H460 lung): 16.5 µM
- GI50 (NCI-H522 lung): 3.24 µM
- TGI (NCI-H522 lung): 12 µM
- GI50 (NCI/ADR-RES ovarian): 2.26 µM
- TGI (NCI/ADR-RES ovarian): 5.52 µM
- GI50 (OVCAR-3 ovarian): 3.23 µM
- TGI (OVCAR-3 ovarian): 12.2 µM
- GI50 (OVCAR-4 ovarian): 3.42 µM
- TGI (OVCAR-4 ovarian): 14 µM
- GI50 (OVCAR-5 ovarian): 6.3 µM
- TGI (OVCAR-5 ovarian): 18.6 µM
- GI50 (OVCAR-8 ovarian): 5.88 µM
- TGI (OVCAR-8 ovarian): 21.9 µM
- GI50 (PC-3 prostate): 4.2 µM
- TGI (PC-3 prostate): 17.7 µM
- GI50 (RPMI-8226 leukemia): 3.21 µM
- TGI (RPMI-8226 leukemia): 24.7 µM
- GI50 (RXF 393 renal): 3.08 µM
- TGI (RXF 393 renal): 12.4 µM
- GI50 (SF-268 CNS): 6.18 µM
- TGI (SF-268 CNS): 21.7 µM
- GI50 (SF-295 CNS): 3.4 µM
- TGI (SF-295 CNS): 11.6 µM
- GI50 (SF-539 CNS): 1.85 µM
- TGI (SF-539 CNS): 4.17 µM
- GI50 (SK-MEL-2 melanoma): 2.82 µM
- TGI (SK-MEL-2 melanoma): 17.9 µM
- GI50 (SK-MEL-28 melanoma): 5.07 µM
- TGI (SK-MEL-28 melanoma): 17.6 µM
- GI50 (SK-MEL-5 melanoma): 3.88 µM
- TGI (SK-MEL-5 melanoma): 15.5 µM
- GI50 (SK-OV-3 ovarian): 2.45 µM
- TGI (SK-OV-3 ovarian): 7.03 µM
- GI50 (SN12C renal): 4.05 µM
- TGI (SN12C renal): 15.1 µM
- GI50 (SNB-19 CNS): 4.6 µM
- TGI (SNB-19 CNS): 18.9 µM
- GI50 (SR leukemia): 2.87 µM
- TGI (SR leukemia): 11.5 µM
- GI50 (SW-620 colon): 3.98 µM
- TGI (SW-620 colon): 16.2 µM
- GI50 (T-47D breast): 6.45 µM
- TGI (T-47D breast): 27.9 µM
- GI50 (TK-10 renal): 3.35 µM
- TGI (TK-10 renal): 14.1 µM
- GI50 (U251 CNS): 4.03 µM
- TGI (U251 CNS): 14.4 µM
- GI50 (UACC-257 melanoma): 9.22 µM
- TGI (UACC-257 melanoma): 22 µM
- GI50 (UACC-62 melanoma): 3.71 µM
- TGI (UACC-62 melanoma): 14.1 µM
- GI50 (UO-31 renal): 6.37 µM
- TGI (UO-31 renal): 20.3 µM
